Assay results from patent US20130005670A1, “COMBINATION COMPOSITION, COMPRISING AS ACTIVE INGREDIENTS L-CARNITlNE OR PROPIONYL L-CARNITlNE, FOR THE PREVENTION OR TREATMENT OF CHRONIC VENOUS INSUFFICIENCY” (SIGMA-TAU INDUSTRIE FARMACEUTICHE RIUNITE S.P.A., priority 2010, published 2013).

Columns and labels:
[1] = tested on: aortic rings precontracted by phenylephrine; assay: relaxant effect on aortic rings precontracted by phenylephrine; design: species or system spontaneously hypertensive rats; conditions: 100 micro-molar each component, final concentration in organ chamber; SHR aortic rings precontracted by phenylephrine (1 micromolar); n=8
Protocol: Relaxant Effect on Aortic Rings of the Compounds Tested. The objective of this study was to investigate the vasoarelaxation effects of the compositions of the invention using isolated aorta from spontaneously hypertensive rats. The compounds tested were used at a concentration expressed as final concentration in the organ chamber. Male spontaneously hypertensive rats (SHR) 10-12 weeks old, weighing 250-300 g, were housed at 24±2° C. with 60±20% relative humidity, on a 12-h light-dark cycle. Rats were given free access to a diet of standard food and water. All experiments were performed according to the guidelines for the ethical treatment of animals of the European Union. The rats were killed by cervical dislocation and the aortae were rapidly dissected. The descending thoracic aorta was placed in a modified Krebs-Henseleit solution (PSS) containing (mM): NaCl 118, KCl 4.75, NaHCO3 25, MgSO4 1.2, CaCl2 1.8, KH2PO4 1.2 and glucose 11. After excess fat and connective tissue were removed, the aortae were cut into 2-3-mm rings. Aortic rings were mounted under a basal tension of 2 g in 20 mL organ baths containing PSS and attached to an isometric transducer (Harvard UF-1); the signal was recorded by a Powerlab data acquisition system (AD-Instruments). The tissue bath was maintained at 37° C. and bubbled with a 95% O2 and 5% CO2 gas mixture. The relaxant effect of compounds tested was assessed by adding the compound to aortic rings precontracted by phenylephrine (1 micromolar). After the aortae were contracted with phenylephrine and when the contractile response was reached, the test compound was added to the bath. All the results were expressed as a percentage of the maximal contraction of phenylephrine-induced responses. Results are expressed as percentages from the initial precontraction level. The significance was calculated on the actual contraction values means±SE (n=8 aorta preparations per group). Eight preparations were studied from a single aorta. The Student t-test was used as the comparison test for statistical analysis.

[2] = tested on: croton oil-induced hemorrhoid model in rats; assay: croton oil-induced hemorrhoid model in rats (recto-anus coefficient); format: in vivo, rat; conditions: 24 hours after induction with croton oil (3%); oral once per day for five days; 20 mg/kg propionyl L-carnitine or L-carnitine, 30 mg/kg troxerutine, diosmine or hesperidine; RAC = weight of recto-anus (mg)/body weight (g); n = 5 rats
Protocol: Reduction of the Swelling of the Recto-Anus, in Croton Oil-Induced Hemorrhoid Model in Rats.
Male SD rats (6 weeks old, approximately 140 g) were purchased from Harlan Sprague Dawley and allowed to acclimate for 1 week. The rats were maintained in a pathogen-free facility in accordance with the National Research Council of Laboratory Animal care and use guidelines. Each experiment was preformed with age-matched rats 7-8 weeks old. The croton oil-induced hemorrhoid model in rats was performed according to the method published by Nishiki (Nishiki et al. (1988) Folia Pharmacology Japan 92:215-225; Nishiki et al. (1988) Folia Pharmacol. Japan 92:227-240). Briefly, a cotton swab with a diameter of 4 mm soaked with 0.16 mL of inducer (deionized water: pyridine: ethyl ether: 6% croton oil/ethyl ether (1:4:5:10) was applied to the rat's anus for 12 seconds. The final concentration of croton oil was 3%. The edema developed linearly until 7-8 hours after application and the severity of the edema was sustained for more than 24 hours. Twenty-four hours later, recto-anus tissue (approx. 10 mm long) was isolated after the rats were euthanized. The weights of rat body and recto-anus were measured. The recto-anus coefficient (RAC) was calculated using the formula: weight of recto-anus (mg)/body weight (g).
The compounds of the invention were administered orally suspended in saline (1 mL) once per day for five days. Last treatment with the compounds of the invention was made the day of induction of oedema with croton oil.
The compounds of the invention were administered alone or in combination at the following doses: 20 mg/kg propionyl L-carnitine or L-carnitine; 30 mg/kg troxerutine, diosmine or hesperidine.
Twenty-four hours after hemorrhoid induction with croton oil the RAC of rats was determined.

SMILES	% RELAXATION [1] [%]	RAC (recto-anus coefficient) [2]
COc1ccc(-c2cc(=O)c3c(O)cc(O[C@@H]4O[C@H](CO[C@@H]5O[C@@H](C)[C@H](O)[C@@H](O)[C@H]5O)[C@@H](O)[C@H](O)[C@H]4O)cc3o2)cc1O [Diosmine, diosmine]	10	2.02
COc1ccc([C@@H]2CC(=O)c3c(O)cc(O[C@@H]4O[C@H](CO[C@@H]5O[C@@H](C)[C@H](O)[C@@H](O)[C@H]5O)[C@@H](O)[C@H](O)[C@H]4O)cc3O2)cc1O [Hesperidine, hesperidine]	9	2.07
C[N+](C)(C)C[C@H](O)CC(=O)[O-] [L-carnitine]	25	1.99
CCC(=O)O[C@H](CC(=O)[O-])C[N+](C)(C)C [Propionyl L-carnitine, propionyl L-carnitine]	28	1.96
C[C@@H]1O[C@@H](OC[C@H]2O[C@@H](Oc3c(-c4ccc(OCCO)c(OCCO)c4)oc4cc(OCCO)cc(O)c4c3=O)[C@H](O)[C@@H](O)[C@@H]2O)[C@H](O)[C@H](O)[C@H]1O [Troxerutine]	10	2.11
